Laboratory results from US20220331374A1, “NOVEL SKIN CARE COMPOSITION” (BEIERSDORF AG, priority 2019, published 2022).

What was measured:
C. acnes strain C3 = test: Minimum inhibitory concentration (MIC) of cosmetic excipients, strain C3; type: cell-based, Cutibacterium acnes; conditions: % w/vol, incubated anaerobically for 3 days at 37° C., scored visually for growth
Protocol: (§1) In microbiology, the MIC is the lowest concentration of a chemical which prevents visible growth of bacterium. The resulted MIC value depends both on the microorganism and the test compound. The MIC is determined by preparing concentrations series of the test compound in vitro, incubating the solutions with the separate batches of cultured bacteria, and measuring the results using agar dilution or broth microdilution. For the experiments with C. acnes strains C3 and K8, media comprising yeast extract soy peptone and dextrose were used. The MIC is determined by turbidity.
(§2) A total of 125 cosmetic excipients were tested for their compatibility with C. acnes strains C3 and K8. Hydrophilic compounds were tested in a 96-well plate liquid broth format, poorly soluble compounds were pre-dissolved in DMSO before dilution in liquid broth and hydrophobic or solid compounds were tested in an agar well diffusion test assay. The different dilutions of the test excipients in media were prepared in Falcon tubes and then distributed in a deep well plate using a multistepper. Each well received 1.2 ml and was subsequently inoculated with 120 μl of C. acnes bacteria suspension (strain C3 and K8). From the deep well plate 200 μl were transferred in each well of a clear 96 well replicate plate. The leftover was discarded. The plates were then incubated anaerobically for 3 days at 37° C. Following incubation, the test plates were visually examined and wells were scored for growth or complete growth inhibition to define the minimum inhibitory concentration.
(§3) These excipients are listed in the below table with their compatibility values for C. acnes strains C3 and K8. The compatibility values represent the MIC value of the listed ingredients with the tested C. acnes strains. At this concentration [% w/vol] the tested compound starts interfering with the growth of the tested strains. The compounds can be used in formulations at concentrations below this concentration.

C. acnes strain K8 = test: Minimum inhibitory concentration (MIC) of cosmetic excipients, strain K8; type: cell-based, Cutibacterium acnes; conditions: % w/vol, incubated anaerobically for 3 days at 37° C., scored visually for growth
Protocol: as §1, §2, §3

Molecule	COMPATABILITY VALUE C3 [%] (C. acnes strain C3)	COMPATABILITY VALUE K8 [%] (C. acnes strain K8)
O=C(O)CC(O)(CC(=O)O)C(=O)O [citric acid]	0.33	0.08
CCO [ethanol]	3.75	3.75
CCCCCCC(O)CO (centres unmarked) [caprylyl glycol]	0.18	0.18
ethylhexyl cocoate	10.00	10.00
tocopherol	1.50	1.50
CC(CO)CO [methylpropanediol]	4.00	4.00
CC(=O)Oc1c(C)c(C)c2c(c1C)CCC(C)(CCC[C@H](C)CCC[C@H](C)CCCC(C)C)O2 (some centres unmarked) [tocopheryl acetate]	1.00	1.00
